Reference: patent EP4685142A1, “TRIAZINE COMPOUND AND USE THEREOF” (Chengdu Zenitar Biomedical Technology Co., Ltd., priority 2023, dated 2024)
pIC50, pKd: −log10 of the molar value. Read-outs that look alike come from different tables or passages of the source.

Experiments:
[1] = molecular target: T1, NLRP3 inflammasome (Homo sapiens, UniProt Q96P20); experiment: Inhibitory activity of NLRP3 inflammasome in human monocytes (THP-1 cells, LPS + Nigericin, IL-1β ELISA); format: cell-based
T1 construct: host or cells: THP-1 cells
T1 sequence (Q96P20 whole entry): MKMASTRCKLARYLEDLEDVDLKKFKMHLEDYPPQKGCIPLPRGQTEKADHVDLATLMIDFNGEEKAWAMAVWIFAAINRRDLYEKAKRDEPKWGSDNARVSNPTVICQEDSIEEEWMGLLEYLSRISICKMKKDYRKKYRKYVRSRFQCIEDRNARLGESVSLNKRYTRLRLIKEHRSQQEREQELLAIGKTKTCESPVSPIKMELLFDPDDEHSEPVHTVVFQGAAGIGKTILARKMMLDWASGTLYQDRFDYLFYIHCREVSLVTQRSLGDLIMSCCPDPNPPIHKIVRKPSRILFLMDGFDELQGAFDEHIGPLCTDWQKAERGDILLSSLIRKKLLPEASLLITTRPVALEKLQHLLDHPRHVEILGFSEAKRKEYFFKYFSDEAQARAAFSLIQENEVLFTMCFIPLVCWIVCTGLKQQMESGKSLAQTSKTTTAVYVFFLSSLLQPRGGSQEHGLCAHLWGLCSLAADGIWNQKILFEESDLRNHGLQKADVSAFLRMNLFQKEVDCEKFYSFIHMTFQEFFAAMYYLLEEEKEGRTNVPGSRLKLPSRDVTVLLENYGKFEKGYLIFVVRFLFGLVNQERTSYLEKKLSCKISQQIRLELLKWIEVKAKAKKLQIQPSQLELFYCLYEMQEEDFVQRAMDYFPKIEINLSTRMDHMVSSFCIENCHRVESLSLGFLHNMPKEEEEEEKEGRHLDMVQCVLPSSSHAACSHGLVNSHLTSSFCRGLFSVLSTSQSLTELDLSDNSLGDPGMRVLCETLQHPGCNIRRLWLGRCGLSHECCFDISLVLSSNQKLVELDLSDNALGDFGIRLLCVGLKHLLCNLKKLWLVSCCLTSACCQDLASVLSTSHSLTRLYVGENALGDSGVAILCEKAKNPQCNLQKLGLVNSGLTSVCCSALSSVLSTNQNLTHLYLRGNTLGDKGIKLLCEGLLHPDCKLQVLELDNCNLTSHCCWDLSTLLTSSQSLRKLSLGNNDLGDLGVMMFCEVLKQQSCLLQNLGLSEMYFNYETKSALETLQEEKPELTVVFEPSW
In short: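 THP-1 cells differentiated overnight with 10 µM PMA at 37°C and 5% CO2, then primed 3 h with 1 µg/mL LPS in Opti-MEM. Compound applied for 40 min, followed by 40 min with 10 µM nigericin. IL-1β in supernatant measured by ELISA.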

[2] = system: IL-1β in human PBMC cells; experiment: Inhibitory activity on IL-1β in human PBMC cells (LPS + Nigericin, ELISA); format: cell-based
Protocol: 2. Determination of inhibitory activity of compounds on IL-1β in human PBMC cells
Human peripheral blood mononuclear cells (PBMCs) were taken and cultured overnight in RPMI 1640 culture medium containing 10% FBS and antibiotics before stimulation. On the second day, the culture medium was replaced with a serum-reduced culture medium, the grown cells were stimulated for 3 h with LPS at a working concentration of 1 µg/mL, stimulated for 40 min with a drug, and then stimulated for 40 min with Nigericin at a concentration of 10 µM, the cell supernatant was harvested, and the yield of IL-1β was detected by ELISA.
The experimental results are shown in Table 3: Table 3 Inhibitory effect of compounds on IL-1β in PBMC cells

[3] = Pharmacokinetic evaluation in Balb/c mice; format: in vivo
[4] = system: LPS-induced mice; experiment: LPS-induced mouse model, survival; format: in vivo, Balb/c mice; details: for 72h Survival rate: 1 h before 10 mg/kg LPS i.p.
[5] = molecular target: T2, hERG potassium ion channel (Homo sapiens, UniProt Q12809)
T2 sequence (Q12809 whole entry): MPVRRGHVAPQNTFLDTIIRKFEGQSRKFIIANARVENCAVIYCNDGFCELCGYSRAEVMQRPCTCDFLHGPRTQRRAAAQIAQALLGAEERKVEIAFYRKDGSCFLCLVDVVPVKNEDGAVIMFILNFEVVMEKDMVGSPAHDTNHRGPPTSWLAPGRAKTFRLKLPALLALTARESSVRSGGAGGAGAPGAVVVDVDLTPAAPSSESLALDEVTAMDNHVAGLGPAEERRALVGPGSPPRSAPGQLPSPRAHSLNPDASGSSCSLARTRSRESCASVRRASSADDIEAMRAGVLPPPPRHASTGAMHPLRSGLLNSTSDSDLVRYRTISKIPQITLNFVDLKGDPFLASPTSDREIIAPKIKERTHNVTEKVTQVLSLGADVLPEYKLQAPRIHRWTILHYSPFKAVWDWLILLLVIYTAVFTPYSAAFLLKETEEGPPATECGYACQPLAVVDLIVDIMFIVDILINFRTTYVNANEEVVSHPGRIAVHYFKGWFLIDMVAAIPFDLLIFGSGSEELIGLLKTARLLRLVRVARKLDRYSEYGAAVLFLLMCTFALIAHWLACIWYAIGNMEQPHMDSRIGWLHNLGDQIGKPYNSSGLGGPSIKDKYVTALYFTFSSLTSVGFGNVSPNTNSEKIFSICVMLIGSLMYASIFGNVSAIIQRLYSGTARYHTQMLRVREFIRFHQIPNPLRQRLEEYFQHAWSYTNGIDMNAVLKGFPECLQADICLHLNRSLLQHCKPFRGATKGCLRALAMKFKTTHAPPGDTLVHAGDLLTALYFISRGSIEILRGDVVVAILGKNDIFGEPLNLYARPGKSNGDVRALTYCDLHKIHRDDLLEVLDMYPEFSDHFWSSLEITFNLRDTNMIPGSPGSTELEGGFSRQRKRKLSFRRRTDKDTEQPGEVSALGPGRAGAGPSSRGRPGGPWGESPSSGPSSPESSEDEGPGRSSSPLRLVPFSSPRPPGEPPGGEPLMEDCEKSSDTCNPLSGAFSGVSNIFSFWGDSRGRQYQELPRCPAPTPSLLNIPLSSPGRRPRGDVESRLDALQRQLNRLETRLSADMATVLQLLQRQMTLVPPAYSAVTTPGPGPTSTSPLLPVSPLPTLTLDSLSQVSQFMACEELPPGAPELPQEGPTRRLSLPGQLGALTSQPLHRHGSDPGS
Protocol: (§1) Inhibition experiment of compounds on hERG potassium ion channel
(§2) Cell culture and treatment: CHO cells stably expressing hERG were cultured in cell culture flasks and incubated in a 5% CO2 incubator at 37°C. When a cell density reached 60%-80%, the cell culture medium was aspirated, washed once with PBS, and then digested with Detachin. After digestion, the grown cells were neutralized in the cell culture medium, and then centrifuged, the supernatant was aspirated, the cell culture medium was added again to resuspend the grown cells, and the cell density was adjusted to 2-5×10^6 cells/mL for later use.
(§3) Compound preparation: the compound stock solution was diluted in 100% DMSO, that is, 10 µL compound stock solution was serially diluted in 20 µL DMSO by 3 folds to obtain six concentrations. Six concentrations of the compound (4 µL for each concentration) were diluted in 396 µL extracellular fluid by 100 folds to obtain six intermediate concentrations. Six intermediate concentrations of the compound (80 µL for each concentration) were diluted in 320 µL extracellular fluid by 5 folds to obtain final concentrations to be tested. […] DMSO in a final test concentration was not more than 0.2%, and DMSO at this concentration had no effect on the hERG potassium channel. The entire dilution process for compound preparation was performed using Bravo instrument.
(§4) Electrophysiological recording process: the processes of single-celled high-impedance sealing and whole-cell mode formation were all automatically completed by Qpatch instrument, under the whole-cell recording mode, the cells were clamped at -80 mV, before 5-second + 40 mV depolarization stimulus, the cells were given 50-millisecond - 50 mV pre-voltage, followed by repolarization to -50 mV for 5 seconds, and then returning to -80 mV. The voltage stimulus was given every 15 seconds, after 2 minutes of recording, extracellular fluid was recorded for 5 min, and then a drug was administrated, started from a lowest test concentration, each test concentration of the compound was given for 2.5 minutes, after all concentrations were given consecutively, a positive control compound Cisapride (3 µM) was given. At least 3 cells were tested for each concentration (n≥3).
(§5) Data processing: data analysis and processing were performed using GraphPad Prism 5.0 and Excel software. IC50 values of the compounds were calculated by fitting with the following equation using GraphPad Prism 5 software: Y = Bottom + (Top−Bottom)/(1+10^(∧)((LogIC50−X)*HillSlope)); [formula] where X is the Log value of the test sample concentration, Y is an inhibition percentage at a corresponding concentration, and Bottom and Top are the minimum and maximum inhibition percentages, respectively.

[6] = In vivo brain-to-plasma ratio in mice; details: for Brain / Plasma: male mice, oral 10 mg/kg; for Kp at 1 h / Kp at 6 h / concentration at 1 h / concentration at 6 h: mouse, po, 10 mg/kg; for concentration at 1 h / concentration at 6 h: plasma
Protocol: Evaluation of in vivo brain-to-plasma ratio of compound
Experimental purpose: to obtain the brain-to-plasma ratio of the compound
Experimental protocol: the brain-to-plasma ratio of the compound was investigated by monitoring the content of the compound in mouse brain and plasma.
Experimental procedure: the compound was weighed, followed by adding a small amount of DMSO and adding a sodium chloride solution for injection, to prepare a 10 mg · mL^-1 compound solution for administration. Male mice were orally administered at 10 mg · kg^-1, and whole plasma and whole brain tissue were sampled at 1 h and 6 h after administration (n=3). […] A centrifuge tube was weighed as M1, the centrifuge tube containing the whole brain tissue was weighed as M2, the centrifuge tube containing water for homogenization was weighed as M3, and the centrifuge tube after the removal of 30 µL homogenate was weighed as M4.
Standard curve range: 10-10,000 ng·mL^-1. Content of drug in brain = measured value × 0.03 × (M3−M1)/[(M2−M1)×(M3−M4)].

[7] = In vivo distribution of cerebrospinal fluid and plasma; details: for Cerebrospinal fluid / Plasma: intravenous 5 mg/kg, n=1; for concentration at 0.25 h / concentration at 2 h: male, mouse, iv, 5 mg/kg
Protocol: Evaluation of in vivo distribution of cerebrospinal fluid and plasma after compound administration
Experimental procedure: the compound was weighed, followed by adding a small amount of DMSO and then adding a sodium chloride solution for injection, to prepare a 5 mg·mL^-1 compound solution for administration. […] Standard curve range: 1-1000 ng·mL^-1.

[8] = molecular target: T2, hERG potassium ion channel; experiment: Inhibition of hERG potassium ion channel (CHO cells stably expressing hERG, Qpatch)
Protocol: as §1, §2, §3, §4, §5

[9] = molecular target: human NLRP3 protein (Homo sapiens, UniProt Q96P20); experiment: Affinity for human NLRP3 protein (Biacore T200, CM5 chip); format: binding; details: protein immobilized on CM5 chip, 25°C
Chain of human NLRP3 protein (Q96P20 whole entry): as the sequence (Q96P20 whole entry) above

[10] = 50 mg/kg, First cage (6 mice for Compound 3, 5 mice for Compound 4)
[11] = 50 mg/kg, Second cage (6 mice for Compound 3, 5 mice for Compound 4)
[12] = THP-1 cells, PMA, LPS 1 µg/mL 3 h, drug 40 min, Nigericin 10 µM 40 min, IL-1β ELISA, read-out: IC50
[13] = male, Balb/c, mouse, in vivo, po, 5 mg/kg

## CCN1CCC[C@@H](Nc2nnc(-c3ccc4sccc4c3O)n(C)c2=O)C1 [Compound 3, (R)-6-((1-ethylpiperidin-3-yl)amino)-3-(4-hydroxybenzo[b]thiophen-5-yl)-4-methyl-1,2,4-tria zin-5(4H)-ketone]
[1]
  pIC50: 8.68
[2]; Homo sapiens, PBMC
  pIC50: 8.91
[3]; 5 mg/kg PO vs 5 mg/kg IV, Balb/c mice
  F: 81.05%
[3]; mouse, in vivo, 5 mg/kg, IV, Balb/c mice
  clearance: 0.58 L/h/kg
[3]; mouse, in vivo, 5 mg/kg, IV, Balb/c mice, read-out: AUC(0-t)
  AUC(0-t): 8.3 µg·h/mL
[3]; mouse, in vivo, 5 mg/kg, IV, Balb/c mice, read-out: Cmax
  Cmax: 1.99 µg/mL
[3]; mouse, in vivo, 5 mg/kg, IV, Balb/c mice, read-out: T1/2 (converted)
  half-life: 5.4 h
[3]; mouse, in vivo, 5 mg/kg, IV, Balb/c mice, read-out: Vdss
  Vd: 4.51 L/kg
[3]; mouse, in vivo, 5 mg/kg, PO, Balb/c mice, read-out: AUC(0-t)
  AUC(0-t): 6.73 µg·h/mL
[3]; mouse, in vivo, 5 mg/kg, PO, Balb/c mice, read-out: Cmax
  Cmax: 1.01 µg/mL
[3]; mouse, in vivo, 5 mg/kg, PO, Balb/c mice, read-out: T1/2 (converted)
  half-life: 4.9 h
[4]; 25 mg/kg oral
  72h Survival rate: 90%
[4]; 25 mg/kg, First cage (5 mice)
  survival status of mice (mice alive) 12h: 5
  survival status of mice (mice alive) 24h: 5
  survival status of mice (mice alive) 36h: 5
  survival status of mice (mice alive) 48h: 4
  survival status of mice (mice alive) 72h: 4
[4]; 25 mg/kg, Second cage (5 mice)
  survival status of mice (mice alive) 12h: 5
  survival status of mice (mice alive) 24h: 5
  survival status of mice (mice alive) 36h: 5
  survival status of mice (mice alive) 48h: 5
  survival status of mice (mice alive) 72h: 5
[4]; 50 mg/kg oral
  72h Survival rate: 92%
[4]; [10]
  survival status of mice (mice alive) 12h: 6
  survival status of mice (mice alive) 24h: 6
  survival status of mice (mice alive) 36h: 6
  survival status of mice (mice alive) 48h: 6
  survival status of mice (mice alive) 72h: 6
[4]; [11]
  survival status of mice (mice alive) 12h: 6
  survival status of mice (mice alive) 24h: 6
  survival status of mice (mice alive) 36h: 5
  survival status of mice (mice alive) 48h: 5
  survival status of mice (mice alive) 72h: 5
[5]
  inhibitory effects on the hERG potassium ion channel (conclusion in words): Conclusion: compounds 3, 4, 5, 9, 16, 17, 24, 30, 40, 41, 42, 43, 54 and others have weak inhibitory effects on the hERG potassium ion channel, having weaker inhibitory effect than the reference compound Ref-1.
[6]; 1 h
  Brain: 761 ng/g
  Plasma: 2082 ng/mL
[6]; 6 h
  Brain: 104 ng/g
  Plasma: 312 ng/mL
[6]; brain
  Kp at 1 h: 0.36
  Kp at 6 h: 0.33
[7]; 0.25h
  Cerebrospinal fluid: 79 ng/g
  Plasma: 781 ng/mL
[7]; 2h
  Cerebrospinal fluid: 15 ng/g
  Plasma: 185 ng/mL
[8]
  20 uM Inhibition ratio: 38.23%

## CN1CCC[C@@H](Nc2nnc(-c3ccc4sccc4c3O)n(C)c2=O)C1 [Compound 4, (R)-3-(4-hydroxybenzo[b]thiophen-5-yl)-4-methyl-6-((1-methylpiperidin-3-yl)amino)-1,2,4-tr iazin-5(4H)-ketone]
[1]; [12]
  pIC50: 8.38
[2]; human PBMC, LPS 1 µg/mL 3 h, drug 40 min, Nigericin 10 µM 40 min, IL-1β ELISA, read-out: IC50
  pIC50: 8.85
[3]; [13]
  AUC(0-t): 16.9 µg·h/mL
  Cmax: 4.61 µg/mL
  half-life: 3 h
[4]; 25 mg/kg oral
  72h Survival rate: 80%
[4]; 25 mg/kg, First cage (5 mice)
  survival status of mice (mice alive) 12h: 5
  survival status of mice (mice alive) 24h: 5
  survival status of mice (mice alive) 36h: 5
  survival status of mice (mice alive) 48h: 5
  survival status of mice (mice alive) 72h: 5
[4]; 25 mg/kg, Second cage (5 mice)
  survival status of mice (mice alive) 12h: 5
  survival status of mice (mice alive) 24h: 5
  survival status of mice (mice alive) 36h: 4
  survival status of mice (mice alive) 48h: 4
  survival status of mice (mice alive) 72h: 3
[4]; 50 mg/kg oral
  72h Survival rate: 100%
[4]; [10]
  survival status of mice (mice alive) 12h: 5
  survival status of mice (mice alive) 24h: 5
  survival status of mice (mice alive) 36h: 5
  survival status of mice (mice alive) 48h: 5
  survival status of mice (mice alive) 72h: 5
[4]; [11]
  survival status of mice (mice alive) 12h: 5
  survival status of mice (mice alive) 24h: 5
  survival status of mice (mice alive) 36h: 5
  survival status of mice (mice alive) 48h: 5
  survival status of mice (mice alive) 72h: 5
[5]; human
  inhibitory effects on the hERG potassium ion channel (conclusion in words): Conclusion: compounds 3, 4, 5, 9, 16, 17, 24, 30, 40, 41, 42, 43, 54 and others have weak inhibitory effects on the hERG potassium ion channel, having weaker inhibitory effect than the reference compound Ref-1.
[6]; 1 h
  Brain: 1780 ng/g
[6]; 6 h
  Brain: 335 ng/g
[6]; male, brain/plasma
  Kp at 1 h: 0.53
  Kp at 6 h: 0.25
[6]; male
  concentration at 1 h: 3.34 µg/mL
  concentration at 6 h: 1.37 µg/mL
[8]
  20 uM Inhibition ratio: 14.87%

## CN1C[C@H](F)C[C@@H](Nc2nnc(-c3ccc4sccc4c3O)n(C)c2=O)C1 [Compound 40]
[1]; [12]
  pIC50: 8.53
[3]; [13]
  AUC(0-t): 40.4 µg·h/mL
  Cmax: 15 µg/mL
  half-life: 2.86 h
[4]; 25 mg/kg oral
  72h Survival rate: 90%
[4]; 25 mg/kg, First cage (5 mice)
  survival status of mice (mice alive) 12h: 5
  survival status of mice (mice alive) 24h: 5
  survival status of mice (mice alive) 36h: 5
  survival status of mice (mice alive) 48h: 5
  survival status of mice (mice alive) 72h: 5
[4]; 25 mg/kg, Second cage (5 mice)
  survival status of mice (mice alive) 12h: 5
  survival status of mice (mice alive) 24h: 5
  survival status of mice (mice alive) 36h: 5
  survival status of mice (mice alive) 48h: 4
  survival status of mice (mice alive) 72h: 4
[9]
  pKd: 7.21
[5]; human
  inhibitory effects on the hERG potassium ion channel (conclusion in words): Conclusion: compounds 3, 4, 5, 9, 16, 17, 24, 30, 40, 41, 42, 43, 54 and others have weak inhibitory effects on the hERG potassium ion channel, having weaker inhibitory effect than the reference compound Ref-1.
[6]; 1 h
  Brain: 1350 ng/g
[6]; 6 h
  Brain: 199 ng/g
[6]; male, brain/plasma
  Kp at 1 h: 0.19
  Kp at 6 h: 0.14
[6]; male
  concentration at 1 h: 7.24 µg/mL
  concentration at 6 h: 1.46 µg/mL
[7]; cerebrospinal fluid
  concentration at 0.25 h: 191 ng/g
  concentration at 2 h: 0.51 ng/g
[7]; plasma
  concentration at 0.25 h: 5.03 µg/mL
  concentration at 2 h: 0.826 µg/mL
[8]
  20 uM Inhibition ratio: 3.48%
